From EP0603160A2, “Compositions for in-situ active compound assembly” (SCRIPPS CLINIC AND RESEARCH FOUNDATION, priority 1986, dated 1988)
Where two headings read alike, the source gives them in different places.

What was measured:
[1] = tested on: human erythrocytes; test: Erythrocyte lysis (light scattering, hemoglobin release, cell counts); assay type: cell-based
Experimental: The putative product shown in Reaction Scheme 1 is evidently cytotoxic, since a suspension of human erythrocytes in a solution containing both CHD and DAPG in phosphate buffered saline is 95% lysed or aggregated within 1-14 hours under physiological conditions (the precise time depending on the concentrations) whereas erythrocytes are stable for at least 24 hours in plain PBS, and also in solutions containing either DAPG or CHD alone. In addition, when erythrocytes are incubated with mixtures of CHD and DAPG, a substantial induction period is observed during which no lysis or aggregation occurs, due to the time lag in formation of the cytotoxic material. Whether lysis or aggregation results depends on relative concentration; excess CHD results in lysis, equimolar concentrations in aggregation. The cytotoxicity may be due to the formation of the polycation, analogous to the known antitumor activity of poly-(L-lysine); Arnold, L. J. Proc. Natl Acad Sci (supra).
For erythrocytes blood was collected and stored with KEDTA at 4°C and erythrocytes prepared within 48 hours by centrifuging three times in phosphate-buffered saline (PBS, pH 7.4). Suspensions containing 3 x 10⁷ cells/ml were prepared in PBS containing 1% EtOH, but no […] cations, and incubated at 37°C with the compounds or mixtures to be tested.
On the other hand, while a mixture of 28 µM AOG and 28 µM decanal (reagent grade, Aldrich Chemical Co.) results in less than 10% lysis within the same 20 minute time frame, as the time of incubation increases, lysis increases also, as indicated by hemoglobin release measured by (1) light absorption of the supernatant at 400 nm. (2) decrease of light scattering by the cells at 700 nm, and (3) direct cell counts using a microscope. […] Suspensions of 3.5 x 10⁷ cells/ml prepared as above in PBS (1% EtOH, no divalent cations, pH 7.4) were incubated at 37°C, and cell lysis was followed by observing the decrease in absorbance at 700 nm. For 0% lysis, A₇₀₀ is 1.0; 0.2 for 100% lysis).
The curves were calculated using a nonlinear least squares fitting algorithm (Arc, H, et al, Statistical Methods (1970) Harper & Row, pp. 100-111) and based on a modified Hill equation (Cantor, C.R. et al, supra) wherein percent hemolysis is calculated as 100% divided by (1+(K/C))^α [formula] . In this equation, K is the median effect concentration, C is the concentration of DIOG (or of decanal and AOG), and α is the Hill constant.

[2] = tested on: Ox blood erythrocytes; test: Erythrocyte killing with or without 1% serum, light scattering; assay type: cell-based; details: for mortality at 1.4 µM / mortality at 2 µM / mortality at 2.8 µM / mortality at 4 µM / mortality at 5.6 µM / mortality at 8 µM / mortality at 11.2 µM / mortality at 16 µM / mortality at 22.4 µM / mortality at 32 µM / mortality at 1 µM: Bos taurus, Erythrocyte, 1 h; for mortality at 1.4 µM: DIOG 1.4 µM; for mortality at 2.8 µM: DIOG 2.8 µM; for mortality at 4 µM: DIOG 4 µM; for mortality at 5.6 µM: DIOG 5.6 µM; for mortality at 11.2 µM: DIOG 11.2 µM; for mortality at 22.4 µM: DIOG 22.4 µM; for mortality at 32 µM: DIOG 32 µM; for mortality at 1 µM: DIOG 1 µM
Experimental: Ox blood erythrocytes were incubated for one hour in PBS at pH 6.6 in the presence or absence of 1% serum at 37°C. […] However, at 4-16 µM DIOG, the percentage of cells killed increased from 4.3 to 60.9. On the other hand, in the absence of serum, 7.2.% cells were killed even without the addition of DIOG, and a steady increase in killing occurred as the DIOG concentration increased, reaching 100% of cells killed at 8 µM.
The AOG concentration was maintained at a high level (448 µM) and the decanal concentration varied from 0-16 µM corresponding the previous DIOG concentration range. In this protocol, similar results were obtained for cells incubated in the absence of serum, but in the presence of 1% serum the curve was slightly displaced so that the cells appeared more protected as shown in Table 4.

[3] = pH 6.6, similar experiment (Table 3), read-out: % Cells Killed (0% Serum)
[4] = pH 6.6, similar experiment (Table 3), read-out: % Cells Killed (1% Serum)
[5] = one hour, PBS pH 6.6, 37°C (second Table 2), read-out: % cells killed (0% serum)
[6] = one hour, PBS pH 6.6, 37°C (second Table 2), read-out: % cells killed (1% serum)

With `CCCCCCCCCC=NNC(=N)NCCCCCCCC` [DIOG, N-1-decylidenimino-N'-octylguanidine] the lysis ([1]; 14 µM DIOG previously prepared, in 20 minutes, 37°C) was “complete lysis”, the EC50 ([1]; Erythrocyte, hemoglobin release from human erythrocytes, absorption at 400 nm, modified Hill equation fit, Figure 4, read-out: median effect concentration) was 6.2 µM and the mortality at 1.4 µM [2, 3] was 1.3%. It also gave a mortality at 1.4 µM [2, 4] of 0%, a mortality at 2 µM ([2]; pH 6.6, DIOG 2 µM, similar experiment (Table 3), read-out: % Cells Killed (0% Serum)) of 17.9% and a mortality at 2 µM ([2]; pH 6.6, DIOG 2 µM, similar experiment (Table 3), read-out: % Cells Killed (1% Serum)) of 5.1%. It also gave a mortality at 2.8 µM [2, 3] of 17.9%, a mortality at 2.8 µM [2, 4] of 9% and a mortality at 4 µM [2, 3] of 48.7%. For the same molecule, the mortality at 4 µM [2, 4] was 11.5%, the mortality at 5.6 µM [2, 3] was 91% and the mortality at 5.6 µM [2, 4] was 16.7%. For the same molecule, the mortality at 8 µM ([2]; pH 6.6, DIOG 8 µM, similar experiment (Table 3), read-out: % Cells Killed (0% Serum)) was 100%, the mortality at 8 µM ([2]; pH 6.6, DIOG 8 µM, similar experiment (Table 3), read-out: % Cells Killed (1% Serum)) was 35.9% and the mortality at 11.2 µM [2, 3] was 100%. It also gave a mortality at 11.2 µM [2, 4] of 37.2%, a mortality at 16 µM ([2]; pH 6.6, DIOG 16 µM, similar experiment (Table 3), read-out: % Cells Killed (0% Serum)) of 100% and a mortality at 16 µM ([2]; pH 6.6, DIOG 16 µM, similar experiment (Table 3), read-out: % Cells Killed (1% Serum)) of 51.3%. The mortality at 22.4 µM [2, 3] was 100%, the mortality at 22.4 µM [2, 4] was 100% and the mortality at 32 µM [2, 3] was 100%. For the same molecule, the mortality at 32 µM [2, 4] was 98.7%, the mortality at 1 µM [2, 5] was 10.1% and the mortality at 1 µM [2, 6] was 0%. For the same molecule, the mortality at 2 µM ([2]; DIOG 2 µM, one hour, PBS pH 6.6, 37°C (second Table 2), read-out: % cells killed (0% serum)) was 29%, the mortality at 2 µM ([2]; DIOG 2 µM, one hour, PBS pH 6.6, 37°C (second Table 2), read-out: % cells killed (1% serum)) was 0% and the mortality at 4 µM [2, 5] was 47.8%. The mortality at 4 µM [2, 6] was 4.3%, the mortality at 8 µM ([2]; DIOG 8 µM, one hour, PBS pH 6.6, 37°C (second Table 2), read-out: % cells killed (0% serum)) was 100% and the mortality at 8 µM ([2]; DIOG 8 µM, one hour, PBS pH 6.6, 37°C (second Table 2), read-out: % cells killed (1% serum)) was 29%. The mortality at 16 µM ([2]; DIOG 16µM, one hour, PBS pH 6.6, 37°C (second Table 2), read-out: % cells killed (0% serum)) was 100%, the mortality at 16 µM ([2]; DIOG 16µM, one hour, PBS pH 6.6, 37°C (second Table 2), read-out: % cells killed (1% serum)) was 60.9% and the “% cells killed (1% serum)” value ([2]; DIOG 2 µM, one hour, PBS pH 6.6, 37°C (second Table 2)) was “no cell killing”. The “% cells killed (0% serum)” value ([2]; DIOG 8 µM, one hour, PBS pH 6.6, 37°C (second Table 2), 60 min) was 100%.
